The target in one experiment is CDK12/CyclinK (Homo sapiens (Human), UniProt Q9NYV4). Kind of experiment: CDK12/cyclinK enzyme activity. The conditions noted are these: in vitro. It is filed as biochemical.
In the next experiment the test system is SK-Br3 cells. Kind of experiment: Breast cancer growth inhibitory activity (Cell-titer Glo, 72 h). The experiment is classed as cell-based. The conditions noted are these: Homo sapiens, SK-BR-3; 72 hours; read-out: SK-Br3 (GI50/μM). The procedure: (§1) Breast cancer cells in a culture solution (100 μL volume/well, 2,500 SK-Br3 cells/well, 1,000 HCC-1954 cells/well) were seeded into a tissue culture-treated 96-well plate and cultured in a cell incubator for 24 hours. […] Cell-titer Glo™ reagent (50 μL of a 5-fold diluted solution, Promega) was added to each well, and luminescence signals were measured using an Envision™ plate reader (PerkinElmer, USA). Titration curve fitting and IC50 values were generated using Prism 7.0 s/w (GraphPad, San Diego, USA).

The test system of the next experiment is HCC1954 cells. Described as above. It is filed as cell-based. The conditions noted are these: Homo sapiens, 72 hours, read-out: HCC1954 (GI50/μM). The method, then:
as §1

Sequence of CDK12/CyclinK (Q9NYV4 whole entry): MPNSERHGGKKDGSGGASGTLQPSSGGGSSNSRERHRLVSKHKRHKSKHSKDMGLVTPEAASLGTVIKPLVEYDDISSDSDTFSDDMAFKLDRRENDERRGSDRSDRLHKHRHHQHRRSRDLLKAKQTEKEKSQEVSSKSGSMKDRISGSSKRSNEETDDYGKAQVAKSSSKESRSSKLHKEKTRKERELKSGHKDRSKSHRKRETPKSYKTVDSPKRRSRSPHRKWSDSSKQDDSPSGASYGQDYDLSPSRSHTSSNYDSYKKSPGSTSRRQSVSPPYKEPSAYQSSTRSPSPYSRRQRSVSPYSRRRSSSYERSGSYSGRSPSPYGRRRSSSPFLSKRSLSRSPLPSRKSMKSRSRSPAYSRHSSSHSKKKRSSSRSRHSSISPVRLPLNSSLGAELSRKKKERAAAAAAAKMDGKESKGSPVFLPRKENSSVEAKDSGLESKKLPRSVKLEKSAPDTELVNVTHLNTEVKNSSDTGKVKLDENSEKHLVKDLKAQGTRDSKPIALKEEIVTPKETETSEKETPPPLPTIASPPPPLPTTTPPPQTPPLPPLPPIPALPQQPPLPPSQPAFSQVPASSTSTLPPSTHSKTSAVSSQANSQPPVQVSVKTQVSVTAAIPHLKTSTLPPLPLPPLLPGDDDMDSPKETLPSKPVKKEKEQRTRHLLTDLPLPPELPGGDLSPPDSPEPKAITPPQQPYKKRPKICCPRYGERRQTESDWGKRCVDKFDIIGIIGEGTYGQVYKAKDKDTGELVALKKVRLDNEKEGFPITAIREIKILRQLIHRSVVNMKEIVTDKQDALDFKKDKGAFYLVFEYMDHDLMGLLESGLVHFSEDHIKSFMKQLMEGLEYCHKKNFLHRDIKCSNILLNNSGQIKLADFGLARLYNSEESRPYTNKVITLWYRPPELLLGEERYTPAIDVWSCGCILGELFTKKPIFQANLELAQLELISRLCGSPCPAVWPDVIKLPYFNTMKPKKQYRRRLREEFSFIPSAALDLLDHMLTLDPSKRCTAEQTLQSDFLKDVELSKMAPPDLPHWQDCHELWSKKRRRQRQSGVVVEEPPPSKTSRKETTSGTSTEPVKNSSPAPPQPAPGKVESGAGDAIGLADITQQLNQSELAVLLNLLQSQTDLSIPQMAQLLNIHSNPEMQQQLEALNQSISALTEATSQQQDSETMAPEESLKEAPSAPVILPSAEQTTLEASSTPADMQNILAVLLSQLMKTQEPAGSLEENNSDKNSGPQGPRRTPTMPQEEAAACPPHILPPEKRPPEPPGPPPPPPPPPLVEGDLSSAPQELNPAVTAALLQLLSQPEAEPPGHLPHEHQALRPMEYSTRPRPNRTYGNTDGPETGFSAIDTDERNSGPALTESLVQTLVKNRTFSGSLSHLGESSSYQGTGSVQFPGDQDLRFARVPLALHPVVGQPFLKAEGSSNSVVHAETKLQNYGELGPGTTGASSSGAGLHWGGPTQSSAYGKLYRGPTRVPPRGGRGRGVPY
Sequence of CDK12/CyclinK (O75909 whole entry partner): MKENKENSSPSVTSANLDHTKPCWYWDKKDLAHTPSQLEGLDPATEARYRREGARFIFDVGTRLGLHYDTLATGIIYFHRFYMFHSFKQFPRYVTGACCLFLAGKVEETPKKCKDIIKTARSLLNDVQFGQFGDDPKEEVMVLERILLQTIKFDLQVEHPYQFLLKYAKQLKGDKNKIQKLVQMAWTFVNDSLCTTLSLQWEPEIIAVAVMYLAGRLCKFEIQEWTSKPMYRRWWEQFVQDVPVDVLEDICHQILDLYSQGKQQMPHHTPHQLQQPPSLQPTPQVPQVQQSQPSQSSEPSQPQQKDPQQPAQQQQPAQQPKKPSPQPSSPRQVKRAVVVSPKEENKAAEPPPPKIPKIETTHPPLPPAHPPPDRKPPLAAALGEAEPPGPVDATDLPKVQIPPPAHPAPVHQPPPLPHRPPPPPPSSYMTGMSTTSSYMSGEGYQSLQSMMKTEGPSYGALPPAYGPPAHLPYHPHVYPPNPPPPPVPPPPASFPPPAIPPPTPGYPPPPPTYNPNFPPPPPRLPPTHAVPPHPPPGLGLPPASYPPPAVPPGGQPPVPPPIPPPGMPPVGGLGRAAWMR

As for `CC(C)n1cnc2c(NCc3ccc(-c4cccnc4)nc3)nc(-c3cnc4ccccc4c3)nc21` [Example 16, N-([2,3′-bipyridin]-5-ylmethyl)-9-isopropyl-2-(quinolin-3-yl)-9H-purin-6-amine], the IC50 (as a rule, the point on the concentration scale where inhibition reaches its midpoint) against CDK12/CyclinK was found to be 0.486 µM. For the same molecule, the GI50 came to 3.71 µM in the experiment on SK-Br3 cells and 4.23 µM in the experiment on HCC1954 cells.

For the molecule `CC(C)n1cnc2c(NCc3ccc(-c4cccnc4)nc3)nc(-c3ccccc3NCCO)nc21` [Example 31, 2-((2-(6-(([2,3′-bipyridin]-5-ylmethyl)amino)-9-isopropyl-9H-purin-2-yl)phenyl)amino)ethan-1-ol], at CDK12/CyclinK, half-maximal inhibition (IC50) required 0.799 µM. For the same molecule, the GI50 in the experiment on SK-Br3 cells was 2.31 µM; in the experiment with HCC1954 cells it was 1.56 µM.

As for `CC(C)n1cnc2c(NCc3ccc(-c4cccnc4)nc3)nc(-c3cn[nH]c3)nc21` [Example 23, N-([2,3′-bipyridin]-5-ylmethyl)-9-isopropyl-2-(1H-pyrazol-4-yl)-9H-purin-6-amine], the IC50 on CDK12/CyclinK was 1.43 µM. For the same molecule, in the experiment on SK-Br3 cells, the GI50 came out at 1.99 µM.

Turning to `CC(C)n1cnc2c(NCc3ccc(-c4cccnc4)nc3)nc(-c3cnc(N)nc3)nc21` [Example 21, N-([2,3′-bipyridin]-5-ylmethyl)-2-(2-aminopyrimidin-5-yl)-9-isopropyl-9H-purin-6-amine], the IC50 against CDK12/CyclinK was 0.087 µM.

For the molecule `CC(C)n1cnc2c(NCc3ccc(-c4cccnc4)nc3)nc(-c3ccc(C(N)=O)cc3)nc21` [Example 10, 4-(6-(([2,3′-bipyridin]-5-ylmethyl)amino)-9-isopropyl-9H-purin-2-yl)benzamide], at CDK12/CyclinK, the IC50 amounted to 0.484 µM. Also, the GI50 turned out to be 3.7 µM with SK-Br3 cells and 3.14 µM with HCC1954 cells.

In the case of `CC(C)n1cnc2c(NCc3ccc(-c4cccnc4)nc3)nc(-c3ccccc3N)nc21` [Example 25, N-([2,3′-bipyridin]-5-ylmethyl)-2-(2-aminophenyl)-9-isopropyl-9H-purin-6-amine], the IC50 at CDK12/CyclinK amounted to 0.619 µM. Further, the values for the GI50 with SK-Br3 cells and with HCC1954 cells were 2.58 µM and 2.62 µM, respectively.

On to `CCn1cnc2c(NCc3ccc(-n4nc(C)cc4C)nc3)nc(-c3cnc(N)nc3)nc21` [Example 62, 2-(2-aminopyrimidin-5-yl)-N-((6-(3,5-dimethyl-1H-pyrazol-1-yl)pyridin-3-yl)methyl)-9-ethyl-9H-purin-6-amine], for which the GI50 with SK-Br3 cells stood at 0.066 µM; with HCC1954 cells it was 0.085 µM.

Consider `CC(C)n1cnc2c(NCc3ccc(-c4cccnc4)nc3)nc(-c3ccnc(NCCCO)c3)nc21` [Example 38, 3-((4-(6-(([2,3′-bipyridin]-5-ylmethyl)amino)-9-isopropyl-9H-purin-2-yl)pyridin-2-yl)amino)propan-1-ol], for which, on CDK12/CyclinK, the IC50 worked out at 0.113 µM. The GI50 with SK-Br3 cells stood at 0.479 µM.

On CDK12/CyclinK, `CC(C)n1cnc2c(NCc3ccc(-c4cccnc4)nc3)nc(-n3cc(CO)nn3)nc21` [Example 41, (1-(6-(([2,3′-bipyridin]-5-ylmethyl)amino)-9-isopropyl-9H-purin-2-yl)-1H-1,2,3-triazol-4-yl)methanol] registered an IC50 of 2.05 µM. Besides, the GI50 with SK-Br3 cells turned out to be 13.3 µM; with HCC1954 cells it was 10 µM.

`Cc1cc(N)n(-c2nc(NCc3ccc(-c4cccnc4)nc3)c3ncn(C(C)C)c3n2)n1` [Example 40, N-([2,3′-bipyridin]-5-ylmethyl)-2-(5-amino-3-methyl-1H-pyrazol-1-yl)-9-isopropyl-9H-purin-6-amine]: the midpoint of inhibition against CDK12/CyclinK, the IC50, lay at 2.35 µM. The GI50 in the experiment on SK-Br3 cells amounted to 5.18 µM; with HCC1954 cells, 3.45 µM.

`CC(C)n1cnc2c(NCc3ccc(-c4ccncc4)nc3)nc(-c3cccnc3)nc21` [Example 7, N-([2,4′-bipyridin]-5-ylmethyl)-9-isopropyl-2-(pyridin-3-yl)-9H-purin-6-amine] displayed an IC50 against CDK12/CyclinK of 0.153 µM. Besides, the GI50 with SK-Br3 cells turned out to be 0.801 µM; in the experiment with HCC1954 cells, 0.5 µM.

`CC(C)n1cnc2c(NCc3ccc(-c4cccnc4)nc3)nc(N3CCOC[C@H]3CCO)nc21` [Example 63, (R)-2-(4-(6-(([2,3′-bipyridin]-5-ylmethyl)amino)-9-isopropyl-9H-purin-2-yl)morpholin-3-yl)ethan-1-ol]: in the experiment with HCC1954 cells, the GI50 was determined as 0.168 µM.

On CDK12/CyclinK, `CC(C)n1cnc2c(NCc3ccc(-c4cccnc4)nc3)nc(-c3cccc(C(N)=O)c3)nc21` [Example 9, 3-(6-(([2,3′-bipyridin]-5-ylmethyl)amino)-9-isopropyl-9H-purin-2-yl)benzamide] yielded an IC50 of 0.504 µM. For the same molecule, the GI50 in the experiment on SK-Br3 cells was 1.6 µM; with HCC1954 cells, 1.12 µM.

Turning to `CC(C)n1cnc2c(NCc3ccc(-c4cccnc4)nc3)nc(-c3ccccc3NCCCO)nc21` [Example 32, 3-((2-(6-(([2,3′-bipyridin]-5-ylmethyl)amino)-9-isopropyl-9H-purin-2-yl)phenyl)amino)propan-1-ol], on CDK12/CyclinK, the IC50 amounted to 3.01 µM. In addition, the GI50 turned out to be 11.3 µM in the experiment with SK-Br3 cells and 6.09 µM with HCC1954 cells.

For the molecule `CC(C)n1cnc2c(NCc3ccc(-c4cccnc4)nc3)nc(-c3cccnc3)nc21` [Example 6, N-([2,3′-bipyridin]-5-ylmethyl)-9-isopropyl-2-(pyridin-3-yl)-9H-purin-6-amine], at CDK12/CyclinK, the IC50 was 0.221 µM. In addition, the figures for the GI50 with SK-Br3 cells and with HCC1954 cells were 0.416 µM and 0.248 µM, respectively.

As to `CC(C)n1cnc2c(NCc3ccc(-c4cccnc4)nc3)nc(-c3ccc(F)nc3)nc21` [Example 28, N-([2,3′-bipyridin]-5-ylmethyl)-2-(6-fluoropyridin-3-yl)-9-isopropyl-9H-purin-6-amine], the IC50 on CDK12/CyclinK was found to be 0.147 µM. Moreover, the GI50 with SK-Br3 cells was found to be 1.75 µM; in the experiment with HCC1954 cells it was 1.31 µM.

Consider `c1cncc(-c2ccc(CNc3nc(-c4cccnc4)nc4c3ncn4C3CCOCC3)cn2)c1` [Example 48, N-([2,3′-bipyridin]-5-ylmethyl)-2-(pyridin-3-yl)-9-(tetrahydro-2H-pyran-4-yl)-9H-purin-6-amine], for which the IC50 on CDK12/CyclinK is over 10 µM. For the same molecule, the GI50 in the experiment with HCC1954 cells amounted to 44.2 µM.

Turning to `CC(C)n1cnc2c(NCc3ccc(-c4cccnc4)nc3)nc(-c3cncnc3)nc21` [Example 20, N-([2,3′-bipyridin]-5-ylmethyl)-9-isopropyl-2-(pyrimidin-5-yl)-9H-purin-6-amine], on CDK12/CyclinK, 0.051 µM corresponded to half-maximal inhibition (IC50). In addition, the GI50 stood at 0.314 µM with SK-Br3 cells and 0.308 µM with HCC1954 cells.

Turning to `CC(C)n1cnc2c(NCc3ccc(-c4ccccn4)cn3)nc(-c3ccc(N)nc3)nc21` [Example 45, N-([2,3′-bipyridin]-6′-ylmethyl)-2-(6-aminopyridin-3-yl)-9-isopropyl-9H-purin-6-amine], on CDK12/CyclinK, the IC50 was 0.221 µM. Besides, the GI50 in the experiment with SK-Br3 cells is 0.169 µM.

For the molecule `CC(C)n1cnc2c(NCc3ccc(-c4cccnc4)nc3)nc(-c3ccn[nH]3)nc21` [Example 22, N-([2,3′-bipyridin]-5-ylmethyl)-9-isopropyl-2-(1H-pyrazol-5-yl)-9H-purin-6-amine], at CDK12/CyclinK, the IC50 stood at 0.501 µM. In the experiment with SK-Br3 cells, the GI50 was 1.72 µM.

For `CCn1cnc2c(NCc3ccc(-c4ccnc(C)c4)nc3)nc(-c3ccc4[nH]c(=O)[nH]c4c3)nc21` [Example 52, 5-(9-ethyl-6-(((2′-methyl-[2,4′-bipyridin]-5-yl)methyl)amino)-9H-purin-2-yl)-1,3-dihydro-2H-benzo[d]imidazol-2-one], the GI50 with HCC1954 cells stood at 0.635 µM.

As for `COc1cncc(-c2nc(NCc3ccc(-c4ccccn4)cn3)c3ncn(C(C)C)c3n2)c1` [Example 44, N-([2,3′-bipyridin]-6′-ylmethyl)-9-isopropyl-2-(5-methoxypyridin-3-yl)-9H-purin-6-amine], at CDK12/CyclinK, inhibition was half-maximal at 1.53 µM (IC50).

On CDK12/CyclinK, `CCn1cnc2c(NCc3ccc(-c4cccnc4)nc3)nc(-c3cccnc3)nc21` [Example 46, N-([2,3′-bipyridin]-5-ylmethyl)-9-ethyl-2-(pyridin-3-yl)-9H-purin-6-amine] came in with an IC50 of 0.016 µM. Besides, in the experiment with SK-Br3 cells, the GI50 is 0.217 µM.

In turn, `CC(C)n1cnc2c(NCc3ccc(-c4cccnc4)nc3)nc(-c3ccc(NCCCO)nc3)nc21` [Example 36, 3-((5-(6-(([2,3′-bipyridin]-5-ylmethyl)amino)-9-isopropyl-9H-purin-2-yl)pyridin-2-yl)amino)propan-1-ol] showed an IC50 on CDK12/CyclinK of 0.304 µM. Besides, in the experiment with SK-Br3 cells, the GI50 stood at 1.18 µM.

Turning to `CC(C)n1cnc2c(NCc3ccc(-c4cccnc4)nc3)nc(-c3ccnc(NCCO)c3)nc21` [Example 37, 2-((4-(6-(([2,3′-bipyridin]-5-ylmethyl)amino)-9-isopropyl-9H-purin-2-yl)pyridin-2-yl)amino)ethan-1-ol], the half-maximal inhibitory concentration (IC50) on CDK12/CyclinK came out at 0.086 µM. Further, the GI50 with SK-Br3 cells stood at 0.47 µM.

For `CC(C)n1cnc2c(NCc3ccc(-c4cccnc4)nc3)nc(-c3ccnc(N)c3)nc21` [Example 19, N-([2,3′-bipyridin]-5-ylmethyl)-2-(2-aminopyridin-4-yl)-9-isopropyl-9H-purin-6-amine], the IC50 on CDK12/CyclinK was found to be 0.094 µM. In the experiment on HCC1954 cells, the GI50 was 0.362 µM.

Turning to `CC(C)n1cnc2c(NCc3ccc(-c4cccnc4)nc3)nc(-c3ccnc(F)c3)nc21` [Example 29, N-([2,3′-bipyridin]-5-ylmethyl)-2-(2-fluoropyridin-4-yl)-9-isopropyl-9H-purin-6-amine], on CDK12/CyclinK, the IC50 turned out to be 0.164 µM. For the same molecule, the GI50 in the experiment on SK-Br3 cells was found to be 1.72 µM.

`CC(C)n1cnc2c(NCc3ccc(-c4cccnc4)nc3)nc(-c3ccc(N)cc3)nc21` [Example 27, N-([2,3′-bipyridin]-5-ylmethyl)-2-(4-aminophenyl)-9-isopropyl-9H-purin-6-amine]: the IC50 at CDK12/CyclinK worked out at 0.15 µM. Besides, the GI50 in the experiment on SK-Br3 cells came to 0.813 µM.

Regarding `CC(C)n1cnc2c(NCc3ccc(-c4cccnc4)nc3)nc(-c3cccc(NCCCO)c3)nc21` [Example 33, 3-((3-(6-(([2,3′-bipyridin]-5-ylmethyl)amino)-9-isopropyl-9H-purin-2-yl)phenyl)amino)propan-1-ol], the IC50 against CDK12/CyclinK is 0.257 µM. In the experiment with SK-Br3 cells, the GI50 stood at 0.724 µM.

Source of the values: patent US20250101023A1, “HETEROARYL DERIVATIVE AND USES THEREOF” (IUCF-HYU (INDUSTRY-UNIVERSITY COOPERATION FOUNDATION …, priority 2022, published 2025).
